What was measured:
[1] = tested on: Human CD34+ progenitor cells; test: Human CD34+ progenitors assay for fetal hemoglobin induction, % HbF+ cells by FACS (healthy donors); format: cell-based; conditions: for Observed Induction of % HbF + Human Erythroid Progenitors: evaluated in the context of cell viability; for % HbF+ cells: 26% basal level
Source text: An in-vitro system to test the ability of compound to induce fetal hemoglobin expression was developed. This system used Human CD34+ progenitor cells freshly isolated from healthy donors blood collections. Peripheral blood mononuclear cells (PBMCs) were isolated from whole blood by density gradient centrifugation using SepMatem-50 and Lymphoprep™ from Stem Cell Technologies. CD34^+ hematopoietic progenitor cells (HSPCs) were isolated from PBMCs by magnetic separation using Stem Cells Technologies CD34+ positive selection/isolation kit (Stem Cell Technologies, #18056). CD34 cells were cultured using a 2-phase 14 day culture system. During phase 1 (day 0 to day 7) cells were expanded. Expansion was followed by phase 2 (day 7 to day 14) where cells were differentiated toward the erythroid lineage. Compounds were added on day 1 and day 7 as 1000× stock after being diluted in dimethyl sulfoxide (DMSO) in a 3-fold series. Final DMSO concentration in the assay was 0.1%. At day 14 cells were harvested for Fluorescent Activated Cell Sorting (FACS) analysis and for HbF quantitation by Mass spectrometry. For cell surface and intracellular marker analysis by FACS, cells were fixed and stained with a cocktail of antibodies covering erythroid lineage markers, HbF and H3 and H3K9me2 (Table 11). Data was collected using Canto II flow cytometer (BD Biosciences) and the FACSDiva software. Data was analyzed using FlowJo software. % HbF^+ cells and ratios H3/H3K9me2 intensities were calculated for CD71^+/CD235a^+ gated populations.
A list of pharmacological agents was evaluated for their potential to induce fetal Hemoglobin (HbF) in order to identify combination partners for our EHMT1/2 inhibitors. HbF can be induced by toxicity; therefore, the potential of the agents to induce HbF were evaluated in the context of cell viability. (Table 12). The EHMT1/2 inhibitor Compound 205 was evaluated in combination with a fixed dose of 10 μM Hydroxyurea and 0.1 μM Pomalidomide. […] 10 μM Hydroxyurea as a single agent was able to induce 01% HbF^+ cells from 26% basal level to 45% while 0.016 μM compound 205 as a single agent induced to 45%. In combination these two agents were able to induced % HbF^+ to 63% (FIG. 3A). […] 0.1 μM Pomalidomide as a single agent was able to induce ° % HbF cells from 26% basal level to 48% while 0.016 μM compound 205 as a single agent induced to 45%. In combination these two agents were able to induce % HbF^+ to 78% (FIG. 3B).
Hydroxyurea was also evaluated as single agent and in combination with the EHMT1/2 inhibitor compound 205 in a matrix format using CD34^+ cells isolated from a pool of 5 healthy donors. […] (FIG. 4 and FIG. 5, respectively). It is noted that for Loewe excess determination in Chalice, data was normalized to the highest and lowest Hbγ induction observed under the conditions and dose ranges in the assay.

[2] = tested on: human CD34+ progenitor cells isolated from SCD donors; test: HbF pan-cellular induction by FACS in human CD34+ progenitor cells isolated from SCD donors; format: cell-based

Row | Compound | Observed Induction of % HbF + Human Erythroid Progenitors [1] | also measured
1 | Nc1ccccc1NC(=O)c1cnccn1 [BG-45] | Yes | –
2 | NC(CO)C(=O)NNCc1ccc(O)c(O)c1O (stereo not shown) [Benzerazide] | Very small | –
3 | CNc1cc(C)nc(Nc2ccc(OC)c(OC[C@H](O)CN3CCC3)c2)n1 [Compound D5R] | – | Fluorescence Intensity at which most of the positive cells are concentrated ([2]; 0.012 μM Compound D5R): ~10(3); % of HbF expressing cells ([2]; 0.012 μM Compound D5R, DMSO baseline 42.7%): 98.1%; % of HbF expressing cells ([2]; 10 μM Hydroxyurea in combination with 0.012 μM Compound D5R, DMSO baseline 42.7%): 99.8%; % HbF+ cells ([2]; Compound D5R dose response range (FIG. 6 ii-vi), DMSO baseline 42.7%): > 98%
4 | Clc1ccc2c(c1)CCc1cccnc1C2=C1CCNCC1 [Desloratidine, desloratidine] | No | –
5 | Nc1ccccc1NC(=O)c1ccc(CNC(=O)OCc2cccnc2)cc1 [Entinostat, entinostat] | Yes | –
6 | NC(=O)NO [Hydroxyurea, hydroxyurea, reference compound] | Yes | % HbF+ cells ([1]; 10 μM Hydroxyurea as a single agent): 45%; Fluorescence Intensity at which most of the positive cells are concentrated ([2]; 10 μM Hydroxyurea): ~10(4); % of HbF expressing cells ([2]; 10 μM Hydroxyurea, DMSO baseline 42.7%): 78.1%
7 | CN(C)C(=N)N=C(N)N [Metformin] | Yes | –
8 | Nc1cccc2c1C(=O)N(C1CCC(=O)NC1=O)C2=O (stereo not shown) [Pomalidomide, pomalidomide] | Yes | % HbF+ cells ([1]; 0.1 μM Pomalidomide as a single agent): 48%
9 | O=C(CCCCCCC(=O)Nc1ccccc1)NO [Vorinostat, vorinostat] | No | –

Source: US20240180880A1, “METHODS OF USING EHMT2 INHIBITORS IN TREATING OR PREVENTING BLOOD DISORDERS” (Epizyme, Inc., priority 2017, published 2024)
